US12409158B2, “Combination therapy for treating cancer” (GONGWIN BIOPHARM CO., LTD, priority 2022, dated 2025)

Key:
Type in all cases: in vivo, BALB/c nude mice
[1] = tested on: IL-1β; experiment: IHC analysis of IL-1β in M5 tumors; conditions: relative to the control group
Description: (§1) The mice were observed daily for clinical signs, weighed them every three days, and at one month after tumor-cell implantation euthanized them with an overdose of anesthetic combined with carbon dioxide. Immediately before sacrificing the mice, the blood was collected from them under anesthesia for hematological assessment. After euthanizing the mice, the tumors were excised immediately. The tumor specimens were divided into two groups. One group was treated with 10% formalin and embedded the specimens in paraffin. These specimens were investigated by hematoxylin and eosin staining; terminal deoxyribonucleotidyl transferase (TdT)-mediated biotin-16-dUTP nick-end labeling (TUNEL assay; APO-BrdU TUNEL Assay Kit, BD Pharmingen, San Diego, CA, USA); and IHC for IL-1β, TNF-α, TGF-β, and CD44, using primary antibodies against these factors (Merck, Billerica, MA, USA). Protein expression was assessed via IHC with the […] mouse/rabbit polymer detection system produced by BioTnA (Kaohsiung, Taiwan). A high-resolution digital microscope (Moticam 2300, Motic Instruments, Richmond, Canada) equipped with Motic Images Plus (version 2.0) was used to capture and analyze the images. The other groups of tumor specimens were first minced coarsely and homogenized, and then stored in a freezer at -80° C.

[2] = tested on: M5 canine melanoma tumor; experiment: TUNEL/DAPI assay of apoptosis in excised M5 tumors; conditions: cisplatin 2 mg/kg, PTS 100 mg/kg IP three times per week
Description: as §1

[3] = tested on: TNF-α; experiment: IHC analysis of TNF-α in M5 tumors; conditions: relative to the control group
Description: as §1

[4] = tested on: cleaved caspase 3; experiment: Western blot of cleaved caspase 3 in M5 tumors; conditions: vs control group
Description: as §1, with “[…] Protein expression and phosphorylation were quantified with ImageJ (National Institutes” for “The other groups”, “Health, Bethesda, […], USA).” for “tumor specimens were first minced coarsely and homogenized, and then stored in a freezer at -80° C.”

[5] = tested on: cyclooxygenase-2 (COX-2); experiment: Western blot of COX-2 in M5 tumors; conditions: vs control group
Description: The mice were observed daily for clinical signs, weighed them every three days, and at one month after tumor-cell implantation euthanized them with an overdose of anesthetic combined with carbon dioxide. Immediately before sacrificing the mice, the blood was collected from them under anesthesia for hematological assessment. After euthanizing the mice, the tumors were excised immediately. The tumor specimens were divided into two groups. One group was treated with 10% formalin and embedded the specimens in paraffin. These specimens were investigated by hematoxylin and eosin staining; terminal deoxyribonucleotidyl transferase (TdT)-mediated biotin-16-dUTP nick-end labeling (TUNEL assay; APO-BrdU TUNEL Assay Kit, BD Pharmingen, San Diego, CA, USA); and IHC for IL-1β, TNF-α, TGF-β, and CD44, using primary antibodies against these factors (Merck, Billerica, MA, USA). Protein expression was assessed via IHC with the TAlink mouse/rabbit polymer detection system produced by BioTnA (Kaohsiung, Taiwan). […]
Western blotting on the second group of tumor specimens was performed according to standard protocol (Wu et al 2020). […] Protein expression and phosphorylation were quantified with ImageJ (National Institutes of Health, Bethesda, […], USA).

[6] = tested on: CD45; experiment: IHC analysis of CD45 in M5 tumors; conditions: IHC staining, FIGS. 11A and 11B
[7] = tested on: TGF-β; experiment: IHC analysis of TGF-β in M5 tumors; conditions: relative to the control group
Description: as §1

[8] = tested on: IL-6; experiment: ELISA of serum IL-6 in M5 tumor-bearing mice; conditions: relative to the control group
Description: The serum levels of IL-6 in the blood samples were measured using commercial mouse kits (ab213749 and ab100697; Abcam, Cambridge, MA, USA) according to the manufacturer's protocol. 50 μl of samples were added to each of the wells in 96-well antibody-coated plates and then incubated for 2 hours at room temperature. 50 μl of the detector antibody solution was loaded into each well and incubated the plates for a further 1 hour at room temperature. Next, […] of HRP-Streptavidin solution (ab210901, Abcam) was added to each well, and once again incubated the plates for 1 hour at room temperature. Finally, 100 μl of tetramethylbenzidine substrate was added to each well and incubated the plates for another 10 min in the dark, again at room temperature. The reaction was stopped by adding 100 μl of stop solution. The wavelength of absorbance was at 450 nm and results were expressed in pg/ml.

Row | Compound | IL-1β activity reduction [1] | TUNEL-positive cell count as multiple of the control [2] | TNF-α activity reduction [3] | cleaved caspase 3 expression [4] | Expression of cyclooxygenase-2 (COX-2) [5] | CD45 activity, times higher than the control group [6] | TGF-β expression reduction [7] | serum IL-6 expression reduction [8]
1 | Cc1ccc(S(N)(=O)=O)cc1 [PTS, p-Toluenesulfonamide] | 26.5% | 3.5 times | 73.0% | significantly higher | lower | 1.3 times | ~23.3% | 57.5%
2 | N.N.[Cl][Pt][Cl] [Cisplatin, cisplatin, reference compound] | 29.7% | 3.9 times | 77.4% | significantly higher | lower | 1.4 times | about 26.6% | 62.8%
